Test results from patent US12473249B2, “Aromatic compounds and pharmaceutical uses thereof” (BASF AS, priority 2018, dated 2025).
Marks after values point to notes of the source that are not given here.

Key:
C57BL/6 mice = test: Hepatic steatosis in PN-fed C57BL/6 mice intravenously administered saline, Intralipid or Omegaven; type: in vivo, mouse
Procedure: Male C57BL/6 mice, 6 to 8 weeks old at initiation of the experiments, were used for all experiments. One group was fed an ad libitum diet of standard rodent chow and water. Six other groups (10 mice per group) were fed a parenteral nutrition (PN) solution ab libitum as described above.
The PN-fed groups received tail vein injections every other day of saline, Omegaven® dosed at 2.4 g/kg/day, or Intralipid® (commercial soybean oil lipid emulsion) dosed at 2.4 g/kg/day and were treated with orogastric gavage administration (every other day) of either MCT or Compound A dosed at 0.6 mmol/kg bw. Intravenous saline was isovolumetric to Intralipid® groups. MCT orogastric gavage was isovolumetric to Compound A treatment (200 μl). The 6 experimental PN diet groups are listed below: • (1) Saline (intravenous)+PN+MCT (gavage) • (2) Intralipid® (intravenous)+PN+MCT (gavage) • (3) Omegaven® (intravenous)+PN+MCT (gavage) • (4) Saline (intravenous)+PN+Compound A (gavage) • (5) Intralipid® (intravenous)+PN+Compound A (gavage) • (6) Omegaven® (intravenous)+PN+Compound A (gavage)

APOE*3Leiden mice = test: Plasma lipids in high-fat diet fed APOE*3Leiden mice; type: in vivo, mouse
Procedure: The APOE*3Leiden mouse expresses a variant of the human apolipoprotein E3 (APOE3), the APOE*3Leiden, in addition to the human apolipoprotein C1 (APOC1).
Studies were performed in APOE*3Leiden mice (13-15 weeks old) placed on a semi-synthetic high fat diet (24% fat w/w) with 0.25% cholesterol w/w. After a 4-week run-in period, mice were sub-divided into groups of 5 mice each and administration of Compound A, Compound B, or vehicle alone was started. Both Compound B and Compound A were administered at a dose of 0.3 mmol/kg bw/day via diet. Sunflower oil (10 ml v/w) was used as a vehicle to facilitate mixing. After 4 weeks of treatment mice were sacrificed by C02 asphyxiation and plasma cholesterol and triglycerides were measured using commercially available kits (Roche*/Hitachi©).
In a further study, performed as described above, the effects of Compound A, Compound B, and Compound C were compared with the effects of Reference Compound 1 ((Z)-3-(pent-2-en-1-yloxy)benzoic acid) and Reference Compound 2 ((Z)-4-(pent-2-en-1-yloxy)benzoic acid) on triglyceride levels. […] The results of this study are described in Example 17.

[1] = PN diet, 19 days, 0.6 mmol/kg bw by gavage, FIGS. 20-21
[2] = high-fat high-cholesterol diet, 4 weeks treatment
[3] = high-fat high-cholesterol diet, 4 weeks treatment, dose 0.1 mmol/kg bw/day

- normalized body mass vs any other experimental group (C57BL/6 mice; [1]): not significantly different
- normalized kidney mass vs any other experimental group (C57BL/6 mice; [1]): not significantly different
- normalized liver mass vs any other experimental group (C57BL/6 mice; [1]): not significantly different
- normalized spleen mass vs any other experimental group (C57BL/6 mice; [1]): not significantly different
Compound: CCCCCOc1cccc(C(=O)O)c1C [Compound A, 2-methyl-3-(pentyloxy)benzoic acid]
- development of steatosis induced by an oral PN diet (H&E stain in isolated liver sections) (C57BL/6 mice; PN diet with intravenous saline, Intralipid or Omegaven, 0.6 mmol/kg bw by gavage every other day, FIGS. 22-25): prevented the development of steatosis
- development of steatosis (Oil Red O stain in isolated liver sections) (C57BL/6 mice; PN diet with intravenous saline, Intralipid or Omegaven, 0.6 mmol/kg bw by gavage every other day, FIGS. 26-29): prevented the development of steatosis
- quantification of lipid accumulation (Oil Red O) as compared with the chow-fed control (C57BL/6 mice; PN diet with intravenous saline, Intralipid or Omegaven, 0.6 mmol/kg bw by gavage, FIG. 30): prevented the development of steatosis
- triglyceride levels over 4 weeks (APOE*3Leiden mice; further study with reference compounds, 0.3 mmol/kg bw/day, FIG. 31): significantly reduced
- plasma TG versus vehicle (APOE*3Leiden mice; [2]): significantly reduce
- total plasma cholesterol versus vehicle (APOE*3Leiden mice; [2]): significantly reduce
- Reduction in plasma TG vs control (%) (APOE*3Leiden mice; [3]): 79*** %
- Reduction in plasma cholesterol vs control (%) (APOE*3Leiden mice; [3]): 30*** %
